Measurements: patent publication US12071431B2, “Pyridin-sulfonamide compounds for the treatment of conditions related to interleukin 1 beta” (ALLINKY BIOPHARMA, priority 2018, dated 2024)

What was measured:
[1] = system: Bleomycin-induced IPF; assay: Treatment of bleomycin-induced IPF in mice; assay type: in vivo
Excerpt: Example 16: Effect of Compound 7 in the Treatment of Bleomycin-Induced IPF Timed pregnant mice (n=30) were selected for the study. The delivered pups were subcutaneously injected on the post-natal day 2 (PND-2) with 1.5 U/kg of Bleomycin (intra-tracheal) and were allowed to remain with the mother until they reached the weanling age. After weanling, the male pups were selected and fed with 60% kcal fat diet (Research Diet-D12492) for the next week. All the animals were observed twice daily for clinical signs. Mice were orally dosed with vehicle, test compounds and reference compound (Pirfenidone) twice daily morning (9.00 AM) and evening before the start of dark cycle (6:00 PM) from day 0 to 14. Animal body weight measurements were made daily for the complete duration of the experiment. Animals were dosed for 14 days with the test and reference compounds. Lung hydroxyproline level was estimated before the treatment start and on the termination day 14. Total cell count and differential leukocyte count in BALF were measured before the treatment start and on […]. Histopathology analysis in the form of H&E Ashcroft score was performed for the lung tissues. All the H&E stained tissue sections were examined by light microscopy. As per the below grading system (Kleiner et al., 2005) in 200× objective lens, IPF scoring was carried out. Collagen Proportion Area (% CPA) Measurement: Masson's Trichrome Staining All the Masson's trichrome stained tissue sections were examined by light microscopy in 100× objective lens. Randomly selected five fields (approx 684.85 μm×917.11m per field) from each lung were subjected to collagen proportion area measurement by using Image Pro Premier 9.1 software. The percentage of collagen proportion area was calculated by dividing collagen tissue area by total tissue area.

[2] = system: Non-Alcoholic Steatohepatitis (NASH) in male C57BL/6 mice; assay: Treatment of non-alcoholic steatohepatitis (NASH) in male C57BL/6 mice (streptozotocin + high-fat diet); assay type: in vivo
Procedure: Example 15: Effect of Compound 5 and 7 in the Treatment of Non-Alcoholic Steatohepatitis (NASH) in Male C57BL/6 Mice
Timed pregnant mice (n=30) were selected for the study. The delivered pups were subcutaneously injected on the post-natal day 2 (PND-2) with 200 μg of Streptozotocin and were allowed to remain with the mother until they reached the weanling age. After weanling, the male pups were selected and fed with 60% kcal fat diet (Research Diet-D12492) for the next 2 weeks. All the animals were observed twice daily for clinical signs.
Mice were dosed with vehicle, test compounds and reference compound (elafibranor) twice daily morning (9.00 AM) and evening before the start of dark cycle (6:00 PM) from day 0 to 28.
Animal body weight measurements were made daily for the complete duration of the experiment.
Animals were dosed for 28 days (from week 6 to 10) with the test and reference compounds.
Blood glucose was estimated before the treatment start and on the termination day 28. Serum ALT and AST levels were measured from the plasma before the treatment start and on day 28.
Histopathology analysis including H&E staining, Masson's trichrome staining and Oil-Red-O (ORO) staining was performed for the liver tissues.
All the H&E stained tissue sections were examined by light microscopy. As per the below grading system (Kleiner et al., 2005) in 200× objective lens, NAFLD scoring was done for steatosis, lobular inflammation and hepatic ballooning.
All the Masson's trichrome stained tissue sections were examined by light microscopy in 100× objective lens. Randomly selected five fields (approx 684.85 μm×917.11 m per field) from each liver were subjected to collagen proportion area measurement by using Image Pro Premier 9.1 software. The percentage of collagen proportion area was calculated by dividing collagen tissue area by total tissue area.
All the Oil-Red-O stained tissue sections were examined by light microscopy in 100× objective lens. Randomly selected five fields (approximately 688.33 μm×922.45 μm per field) from each liver were subjected to measure stained area by using Image Pro Premier 9.1 software. The percentage of stained area was calculated by dividing lipid stained tissue area by total tissue area.

[3] = system: human primary macrophages; assay: Cell viability assessment (CellTiter-Glo) in the macrophage assay plates; assay type: cell-based; set-up: concentration or dose not given beside the values; details: CellTiter-Glo luminescent assay
Procedure: 2×10^5 PBMCs at a total volume of 200 μL/well were plated into a 96-well plate and incubated for 4 hrs at 37° C. in a CO2 incubator to allow the monocytes to settle, leaving the lymphocytes in suspension. Following incubation, 100 μL were aspirated out of each well to ensure removal of the lymphocyte population. The monocytes were differentiated to macrophages by addition of 200 ng/mL of recombinant human GM-CSF (4 mg/mL stock) and incubated at 37° C./5% CO2 for 6 days. The medium was changed every two days by removing half the volume of medium in the well and re-supplementing with fresh RPMI complete medium and recombinant human GM-CSF. Following differentiation, the cells were treated in duplicates with a compound according to the invention in a total volume of 50 μL, maintaining a final DMSO percentile of 0.5%. The plate was transferred to an incubator maintained at 37° C./5% CO2 for 2 hours. The cells were stimulated with 100 ng/mL of LPS (4×) (1 mg/mL stock) in a total volume of 50 μL. The plate was transferred to an incubator maintained at 37° C./5% CO2 for 16 hours. 100 μl/well volume of CellTiter-Glo® luminescent reagent was added to the assay plates and incubated at room temperature for 30 mins on a plate shaker. Following incubation, the luminescent signal of each well was determined using a microplate reader (Perkin Elmer ENVISION 2104). Cytotoxicity of the test compounds was determined utilizing the following formula: % Cytotoxicity=100−(100*(Average Test Compound Counts−Average Negative Control Counts)/(Average Positive Control Counts−Average Negative Control Counts)) All of the “Counts” stated in this formula are derived from “luminescent signal” determined as described for the cytokine viability assessment.

[4] = 3 mg/kg dose, twice daily, 28 days, H&E NAFLD scoring

For CCOc1ccc(Oc2cc(S(=O)(=O)N(C)C)cnc2N2CCC(Oc3ccc(Cl)cc3)CC2)cc1 [Compound 7], the lung hydroxyproline levels ([1]; 15 mg/kg dose, oral twice daily, 14 days, vs Bleomycin control, FIG. 4) was “significantly reduced”, the “reduction of lung hydroxyproline levels compared with Pirfenidone” value ([1]; Compound 7 15 mg/kg vs 100 mg/kg Pirfenidone) was “higher than for 100 mg/kg Pirfenidone” and the BALF macrophage counts ([1]; compared with Bleomycin control, Compound 7 p>0.05, Pirfenidone p<0.05, FIGS. 5A and 5B) was “reduced”. The “% CPA (Collagen Proportion Area)” value ([1]; lung, Masson's trichrome, in comparison with Bleomycin control, p<0.05, FIG. 6B) was “significant reduction”, the “fibrosis score (H&E Ashcroft Score)” value ([1]; lung, in comparison with Bleomycin control, p<0.05, FIG. 6A) was “significant reduction” and the “NAFLD activity score (NAS)” value ([2]; 3 mg/kg dose, twice daily, 28 days, FIG. 1) was “better NAS score than Elafibranor”. The “lobular inflammation in the liver” value [2, 4] was “significantly reduced”, the “steatosis in the liver” value [2, 4] was “significantly reduced” and the “hepatomegaly and liver to body weight ratio” value ([2]; 28 days of treatment, FIG. 3) was “did not show any hepatomegaly and increase in liver to body weight ratio”. The “Serum AST levels” value ([2]; after 28 days of treatment, FIG. 2) was “significantly reduced” and the Cell viability [3] was 100%.
